Data: US11339171B2, “MDM2 inhibitors” (Gan & Lee Pharmaceuticals, priority 2017, dated 2022)

Key:
MDM2 = biological target: T1, MDM2 (Homo sapiens, UniProt Q00987); experiment: Inhibition test of MDM2-P53 (GST-MDM2, Biotin-P53, Anti-GST-Tb, SA-XL665); assay type: binding
T1 construct: made in house
Method in brief: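 Binding was measured by TR-FRET with GST-MDM2 at 4 nM final in PBS with 0.1% BSA, 5 mM DTT and 1 mM AEBSF. Compounds were tested as twelve-point 5-fold dilutions and incubated with the detection mix for 90 min at 25 °C with shaking before plate-reader reading and curve fitting.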

[1] = system: human osteosarcoma cell line SJSA-1; experiment: Inhibition of proliferation of human osteosarcoma cell line SJSA-1 (DAPI staining, In Cell Analyzer); conditions: Homo sapiens, SJSA-1, 72 h, read-out: IC50 (nM), inhibitory activity on proliferation of human osteosarcoma cell line SJSA-1, SJSA-1, incubated 72 h

T1 sequence (Q00987 whole entry): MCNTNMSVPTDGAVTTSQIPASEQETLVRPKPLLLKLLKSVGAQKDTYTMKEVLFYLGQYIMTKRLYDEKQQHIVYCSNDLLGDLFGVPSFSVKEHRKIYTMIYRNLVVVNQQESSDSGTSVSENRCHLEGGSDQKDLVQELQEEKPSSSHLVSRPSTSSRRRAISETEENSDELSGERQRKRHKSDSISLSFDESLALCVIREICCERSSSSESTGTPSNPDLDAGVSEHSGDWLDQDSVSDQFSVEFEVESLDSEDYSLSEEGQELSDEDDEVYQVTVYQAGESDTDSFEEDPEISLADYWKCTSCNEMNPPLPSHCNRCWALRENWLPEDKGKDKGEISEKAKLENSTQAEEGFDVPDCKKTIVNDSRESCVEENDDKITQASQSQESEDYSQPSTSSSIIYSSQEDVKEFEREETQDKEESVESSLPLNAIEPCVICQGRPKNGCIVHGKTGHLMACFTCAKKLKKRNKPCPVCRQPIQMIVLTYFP

COc1cc(N)c(F)cc1-c1nc2c(n1C(C)C)[C@@]1(C(=O)Nc3cc(Cl)ccc31)N(c1cc(Cl)ccc1C)C2=O [Example S-75, (S)-2′-(4-amino-5-fluoro-2-methoxyphenyl)-6-chloro-5′-(5-chloro-2-methylphenyl)-3′-isopropyl-3′H-spiro[dihydroindole-3,4′-pyrrolo[3,4-d]imidazole]-2,6′(5′H)-dione]
IC50 (MDM2): 0.97 nM | IC50 [1]: 9.84 nM

COc1c(F)cccc1-c1nc2c(n1C(C)C)[C@@]1(C(=O)Nc3cc(Cl)ccc31)N(c1cc(Cl)ccc1C)C2=O [Example S-76, (S)-6-chloro-5′-(5-chloro-2-methylphenyl)-2′-(3-fluoro-2-methoxyphenyl)-3′-isopropyl-3′H-spiro[dihydroindole-3,4′-pyrrolo[3,4-d]imidazole]-2,6′(5′H)-dione]
IC50 (MDM2): 4.23 nM | IC50 [1]: 309 nM

COc1cc(C(N)=O)ccc1-c1nc2c(n1C(C)C)[C@@]1(C(=O)Nc3cc(Cl)ccc31)N(c1cc(Cl)ccc1C)C2=O [Example S-77, (S)-4-(6-chloro-5′-(5-chloro-2-methylphenyl)-3′-isopropyl-2,6′-dioxo-5′,6′-dihydro-3′H-spiro[dihydroindole-3,4′-pyrrolo[3,4-d]imidazole]-2′-yl)-3-methoxybenzamide]
IC50 (MDM2): 1.86 nM | IC50 [1]: 535 nM

COc1cc(N(C)C)c(F)cc1-c1nc2c(n1C(C)C)[C@@]1(C(=O)Nc3cc(Cl)ccc31)N(c1cc(Cl)ccc1C)C2=O [Example S-78]
IC50 (MDM2): 1.42 nM | IC50 [1]: 7.88 nM

COc1cccc(OC)c1-c1nc2c(n1C(C)C)[C@@]1(C(=O)Nc3cc(Cl)ccc31)N(c1cc(Cl)ccc1C)C2=O [Example S-79, (S)-6-chloro-5′-(5-chloro-2-methylphenyl)-2′-(2,6-dimethoxyphenyl)-3′-isopropyl-3′H-spiro[dihydroindole-3,4′-pyrrolo[3,4-d]imidazole]-2,6′(5′H)-dione]
IC50 (MDM2): 1.89 nM | IC50 [1]: 72.4 nM

COc1ccc(-c2nc3c(n2C(C)C)[C@@]2(C(=O)Nc4cc(Cl)ccc42)N(c2cc(Cl)ccc2F)C3=O)c(OC)c1 [Example S-80, (S)-6-chloro-5′-(5-chloro-2-fluorophenyl)-2′-(2,4-dimethoxyphenyl)-3′-isopropyl-3′H-spiro[dihydroindole-3,4′-pyrrolo[3,4-d]imidazole]-2,6′(5′H)-dione]
IC50 (MDM2): 2.56 nM | IC50 [1]: 16.9 nM

COc1cc(N(C)C)ccc1-c1nc2c(n1C(C)C)[C@@]1(C(=O)Nc3cc(Cl)ccc31)N(c1cc(Cl)ccc1F)C2=O [Example S-81, (S)-6-chloro-5′-(5-chloro-2-fluorophenyl)-2′-(4-(dimethylamino)-2-methoxyphenyl)-3′-isopropyl-3′H-spiro[dihydroindole-3,4′-pyrrolo[3,4-d]imidazole]-2,6′(5′H)-dione]
IC50 (MDM2): 1.23 nM | IC50 [1]: 82.8 nM

COc1nc(N(C)C)ncc1-c1nc2c(n1C(C)C)[C@@]1(C(=O)Nc3cc(Cl)ccc31)N(c1cc(Cl)ccc1C)C2=O [Example S-82, (S)-6-chloro-5′-(5-chloro-2-methylphenyl)-2′-(2-(dimethylamino)-4-methoxypyrimidin-5-yl)-3′-isopropyl-3′H-spiro[dihydroindole-3,4′-pyrrolo[3,4-d]imidazole]-2,6′(5′H)-dione]
IC50 (MDM2): 1.16 nM | IC50 [1]: 7.43 nM

COc1cc(OC)c(-c2nc3c(n2C(C)C)[C@@]2(C(=O)Nc4cc(Cl)ccc42)N(c2cc(Cl)ccc2C)C3=O)cc1C [Example S-83, (S)-6-chloro-5′-(5-chloro-2-methylphenyl)-2′-(2,4-dimethoxy-5-methylphenyl)-3′-isopropyl-3′H-spiro[dihydroindole-3,4′-pyrrolo[3,4-d]imidazole]-2,6′(5′H)-dione]
IC50 (MDM2): 2.23 nM | IC50 [1]: 6.21 nM

COc1cc(C(F)(F)F)ccc1-c1nc2c(n1C(C)C)[C@@]1(C(=O)Nc3cc(Cl)ccc31)N(c1cc(Cl)ccc1C)C2=O [Example S-85, (S)-6-chloro-5′-(5-chloro-2-methylphenyl)-3′-isopropyl-2′-(2-methoxy-4-(trifluoromethyl)phenyl)-3′H-spiro[dihydroindole-3,4′-pyrrolo[3,4-d]imidazole]-2,6′(5′H)-dione]
IC50 (MDM2): 3.3 nM | IC50 [1]: 40.2 nM

COc1cc(C2CC2)ccc1-c1nc2c(n1C(C)C)[C@@]1(C(=O)Nc3cc(Cl)ccc31)N(c1cc(Cl)ccc1C)C2=O [Example S-86, (S)-6-chloro-5′-(5-chloro-2-methylphenyl)-2′-(4-cyclopropyl-2-methoxyphenyl)-3′-isopropyl-3′H-spiro[dihydroindole-3,4′-pyrrolo[3,4-d]imidazole]-2,6′(5′H)-dione]
IC50 (MDM2): 2.59 nM | IC50 [1]: 21.2 nM

COc1cc(OC(F)(F)F)ccc1-c1nc2c(n1C(C)C)[C@@]1(C(=O)Nc3cc(Cl)ccc31)N(c1cc(Cl)ccc1C)C2=O [Example S-87, (S)-6-chloro-5′-(5-chloro-2-methylphenyl)-3′-isopropyl-2′-(2-methoxy-4-(trifluoromethoxy)phenyl)-3′H-spiro[dihydroindole-3,4′-pyrrolo[3,4-d]imidazole]-2,6′(5′H)-dione]
IC50 (MDM2): 3.31 nM | IC50 [1]: 11.1 nM

CCOc1ccc(-c2nc3c(n2C(C)C)[C@@]2(C(=O)Nc4cc(Cl)ccc42)N(c2cc(Cl)ccc2C)C3=O)c(OC)c1 [Example S-88, (S)-6-chloro-5′-(5-chloro-2-methylphenyl)-2′-(4-ethoxy-2-methoxyphenyl)-3′-isopropyl-3′H-spiro[dihydroindole-3,4′-pyrrolo[3,4-d]imidazole]-2,6′(5′H)-dione]
IC50 (MDM2): 2.34 nM | IC50 [1]: 77.3 nM

COc1cc(C(C)C)ccc1-c1nc2c(n1C(C)C)[C@@]1(C(=O)Nc3cc(Cl)ccc31)N(c1cc(Cl)cnc1C)C2=O [Example S-89, (S)-6-chloro-5′-(5-chloro-2-methylpyridin-3-yl)-3′-isopropyl-2′-(4-isopropyl-2-methoxyphenyl)-3′H-spiro[dihydroindole-3,4′-pyrrolo[3,4-d]imidazole]-2,6′(5′H)-dione]
IC50 (MDM2): 4.32 nM | IC50 [1]: 43.2 nM

COc1nc(N)ncc1-c1nc2c(n1C(C)C)[C@@]1(C(=O)Nc3cc(Cl)ccc31)N(c1cc(Cl)ccc1C)C2=O [Example S-90, (S)-2′-(2-amino-4-methoxypyrimidin-5-yl)-6-chloro-5′-(5-chloro-2-methylphenyl)-3′-isopropyl-3′H-spiro[dihydroindole-3,4′-pyrrolo[3,4-d]imidazole]-2,6′(5′H)-dione]
IC50 (MDM2): 1.38 nM | IC50 [1]: 255 nM

COc1cc(N(C)C)c(C)cc1-c1nc2c(n1C(C)C)[C@@]1(C(=O)Nc3cc(Cl)ccc31)N(c1cc(Cl)ccc1C)C2=O [Example S-91, (S)-6-chloro-5′-(5-chloro-2-methylphenyl)-2′-(4-(dimethylamino)-2-methoxy-5-methylphenyl)-3′-isopropyl-3′H-spiro[dihydroindole-3,4′-pyrrolo[3,4-d]imidazole]-2,6′(5′H)-dione]
IC50 (MDM2): 3.56 nM | IC50 [1]: 14.4 nM

COc1cc(OC)c(-c2nc3c(n2C(C)C)[C@@]2(C(=O)Nc4cc(Cl)ccc42)N(c2cc(Cl)ccc2C)C3=O)cc1F [Example S-92, (S)-6-chloro-5′-(5-chloro-2-methylphenyl)-2′-(5-fluoro-2,4-dimethoxyphenyl)-3′-isopropyl-3′H-spiro[dihydroindole-3,4′-pyrrolo[3,4-d]imidazole]-2,6′(5′H)-dione]
IC50 (MDM2): 1.72 nM | IC50 [1]: 19.9 nM

CCOc1ccc(-c2nc3c(n2C(C)C)[C@@]2(C(=O)Nc4cc(Cl)ccc42)N(c2cc(Cl)ccc2F)C3=O)c(OC)c1 [Example S-94, (S)-6-chloro-5′-(5-chloro-2-fluorophenyl)-2′-(4-ethoxy-2-methoxyphenyl)-3′-isopropyl-3′H-spiro[dihydroindole-3,4′-pyrrolo[3,4-d]imidazole]-2,6′(5′H)-dione]
IC50 (MDM2): 4.72 nM | IC50 [1]: 309 nM

COc1cc(OC(C)C)ncc1-c1nc2c(n1C(C)C)[C@@]1(C(=O)Nc3cc(Cl)ccc31)N(c1cccc(Cl)c1)C2=O [Example S-95, (S)-6-chloro-5′-(3-chlorophenyl)-2′-(6-isopropoxy-4-methoxypyridin-3-yl)-3′-isopropyl-3′H-spiro[dihydroindole-3,4′-pyrrolo[3,4-d]imidazole]-2,6′(5′H)-dione]
IC50 (MDM2): 1.92 nM | IC50 [1]: 49.5 nM

CCOc1ncc(-c2nc3c(n2C(C)C)[C@@]2(C(=O)Nc4cc(Cl)ccc42)N(c2cc(Cl)ccc2F)C3=O)c(OC)n1 [Example S-97, (S)-6-chloro-5′-(5-chloro-2-fluorophenyl)-2′-(2-ethoxy-4-methoxypyrimidin-5-yl)-3′-isopropyl-3′H-spiro[dihydroindole-3,4′-pyrrolo[3,4-d]imidazole]-2,6′(5′H)-dione]
IC50 (MDM2): 3.94 nM | IC50 [1]: 167 nM

CCN(C)c1ccc(-c2nc3c(n2C(C)C)[C@@]2(C(=O)Nc4cc(Cl)ccc42)N(c2cc(Cl)ccc2C)C3=O)c(OC)c1 [Example S-99, (S)-6-chloro-5′-(5-chloro-2-methylphenyl)-2′-(4-(ethyl(methyl)amino)-2-methoxyphenyl)-3′-isopropyl-3′H-spiro[dihydroindole-3,4′-pyrrolo[3,4-d]imidazole]-2,6′(5′H)-dione]
IC50 (MDM2): 2.56 nM | IC50 [1]: 34.2 nM

CCOc1ccc(-c2nc3c(n2C(C)C)[C@@]2(C(=O)Nc4cc(Cl)ccc42)N(c2cccc(Cl)c2)C3=O)c(OC)c1 [Example S-100, (S)-6-chloro-5′-(3-chlorophenyl)-2′-(4-ethoxy-2-methoxyphenyl)-3′-isopropyl-3′H-spiro[dihydroindole-3,4′-pyrrolo[3,4-d]imidazole]-2,6′(5′H)-dione]
IC50 (MDM2): 3.14 nM | IC50 [1]: 1210 nM

COc1cc(C(C)(C)C)ccc1-c1nc2c(n1C(C)C)[C@@]1(C(=O)Nc3cc(Cl)ccc31)N(c1cc(Cl)ccc1C)C2=O [Example S-101, (S)-2′-(4-(tert-butyl)-2-methoxyphenyl)-6-chloro-5′-(5-chloro-2-methylphenyl)-3′-isopropyl-3′H-spiro[dihydroindole-3,4′-pyrrolo[3,4-d]imidazole]-2,6′(5′H)-dione]
IC50 (MDM2): 9.86 nM | IC50 [1]: 48.5 nM
